Experimental data published in PubChem BioAssay (NCI).
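In this assay, cells in 96-well plates receive the compound at five concentrations for 48 hours. Endpoints are linearly interpolated between the surrounding concentrations. TGI: concentration producing complete growth inhibition.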

Legend:
Assay in all cases: inhibition of tumour cell growth, NCI panel, 48 h
CCRF-CEM leukemia = tested on: CCRF-CEM leukemia
HCC-2998 colon = tested on: HCC-2998 colon
HCT-116 colon = tested on: HCT-116 colon
HOP-62 NSCLC = tested on: HOP-62 NSCLC
HOP-92 NSCLC = tested on: HOP-92 NSCLC
HT29 colon = tested on: HT29 colon
LOX IMVI melanoma = tested on: LOX IMVI melanoma
MCF7 breast = tested on: MCF7 breast
NCI-H226 lung = tested on: NCI-H226 lung
OVCAR-3 ovarian = tested on: OVCAR-3 ovarian
OVCAR-4 ovarian = tested on: OVCAR-4 ovarian
SF-295 CNS = tested on: SF-295 CNS
SF-539 CNS = tested on: SF-539 CNS
SK-MEL-5 melanoma = tested on: SK-MEL-5 melanoma
SN12C renal = tested on: SN12C renal
SW-620 colon = tested on: SW-620 colon
U251 CNS = tested on: U251 CNS
UACC-257 melanoma = tested on: UACC-257 melanoma
SR leukemia = tested on: SR leukemia
TK-10 renal = tested on: TK-10 renal

For `O=C(O)CCCCCCCCC(=O)O`, the TGI (CCRF-CEM leukemia) was > 500 µM, the TGI (HCC-2998 colon) was > 500 µM and the TGI (HCT-116 colon) was > 500 µM. The TGI (HOP-62 NSCLC) was > 500 µM, the TGI (HOP-92 NSCLC) was > 500 µM and the TGI (HT29 colon) was > 500 µM. The TGI (LOX IMVI melanoma) was > 500 µM, the TGI (MCF7 breast) was > 500 µM and the TGI (NCI-H226 lung) was > 500 µM. For the same compound, the TGI (OVCAR-3 ovarian) was > 500 µM, the TGI (OVCAR-4 ovarian) was > 500 µM and the TGI (SF-295 CNS) was > 500 µM. The TGI (SF-539 CNS) was > 79.3 µM, the TGI (SK-MEL-5 melanoma) was > 500 µM and the TGI (SN12C renal) was > 500 µM. For the same compound, the TGI (SW-620 colon) was > 500 µM, the TGI (U251 CNS) was > 500 µM and the TGI (UACC-257 melanoma) was > 500 µM.
`Cc1cc(C)c(/C=C(\C(=C/c2c(C)cc(C)cc2C)[N+](=O)[O-])[N+](=O)[O-])c(C)c1` was tested, and the TGI (CCRF-CEM leukemia) was > 100 µM, the TGI (HCC-2998 colon) was > 100 µM and the TGI (HCT-116 colon) was > 100 µM. For the same compound, the TGI (HOP-62 NSCLC) was > 100 µM, the TGI (HOP-92 NSCLC) was > 100 µM and the TGI (HT29 colon) was > 100 µM. For the same compound, the TGI (LOX IMVI melanoma) was > 100 µM, the TGI (MCF7 breast) was > 100 µM and the TGI (OVCAR-3 ovarian) was > 100 µM. The TGI (OVCAR-4 ovarian) was > 100 µM, the TGI (SF-295 CNS) was > 100 µM and the TGI (SF-539 CNS) was > 100 µM. The TGI (SK-MEL-5 melanoma) was > 100 µM, the TGI (SN12C renal) was > 100 µM and the TGI (SR leukemia) was > 100 µM. For the same compound, the TGI (SW-620 colon) was > 100 µM, the TGI (TK-10 renal) was > 100 µM and the TGI (U251 CNS) was > 100 µM. The TGI (UACC-257 melanoma) was > 100 µM.
For `O=C1c2cccc(O)c2C(=O)c2c(O)cc(CO)cc21`, the TGI (CCRF-CEM leukemia) was > 100 µM, the TGI (HCC-2998 colon) was > 100 µM and the TGI (HCT-116 colon) was > 100 µM. The TGI (HOP-62 NSCLC) was > 100 µM, the TGI (HOP-92 NSCLC) was > 100 µM and the TGI (HT29 colon) was > 100 µM. The TGI (LOX IMVI melanoma) was > 100 µM, the TGI (NCI-H226 lung) was > 100 µM and the TGI (OVCAR-4 ovarian) was > 100 µM. The TGI (SF-295 CNS) was > 100 µM, the TGI (SK-MEL-5 melanoma) was 30.7 µM and the TGI (SN12C renal) was > 100 µM. For the same compound, the TGI (SR leukemia) was > 100 µM, the TGI (SW-620 colon) was > 100 µM and the TGI (TK-10 renal) was > 100 µM. For the same compound, the TGI (U251 CNS) was > 100 µM and the TGI (UACC-257 melanoma) was > 100 µM.
With `O=S1(=O)C[C@@H](NCc2ccccc2)[C@H](NCc2ccccc2)C1` the TGI (CCRF-CEM leukemia) was > 100 µM, the TGI (HCC-2998 colon) was > 100 µM and the TGI (HCT-116 colon) was > 100 µM. For the same compound, the TGI (HOP-62 NSCLC) was > 100 µM, the TGI (HOP-92 NSCLC) was > 100 µM and the TGI (HT29 colon) was > 100 µM. For the same compound, the TGI (LOX IMVI melanoma) was > 100 µM, the TGI (MCF7 breast) was > 100 µM and the TGI (NCI-H226 lung) was > 100 µM. For the same compound, the TGI (OVCAR-3 ovarian) was > 100 µM, the TGI (OVCAR-4 ovarian) was > 100 µM and the TGI (SF-295 CNS) was > 100 µM. The TGI (SF-539 CNS) was > 100 µM, the TGI (SK-MEL-5 melanoma) was > 100 µM and the TGI (SN12C renal) was > 100 µM. For the same compound, the TGI (SR leukemia) was > 100 µM, the TGI (SW-620 colon) was > 100 µM and the TGI (TK-10 renal) was > 100 µM. For the same compound, the TGI (U251 CNS) was > 100 µM and the TGI (UACC-257 melanoma) was > 100 µM.
